The source of these data is patent US11535607B2, “Isoindolines as HDAC inhibitors” (Valo Health, Inc., priority 2018, dated 2022).

Usually IC50 stands for the concentration that gives 50% inhibition.

Data set [1] is described as follows: In vitro intrinsic clearance after incubation with mouse liver microsomes. To be noted: for microsomal stability, in words: comparison. Type of data set: in vitro ADME. (In general: Microsomes from liver hold many membrane-bound enzymes, among them those of drug oxidation.)
The target of data set [2] is T1, full-length human HDAC11 (Homo sapiens (Human), UniProt Q96DB2). The data set can be described thus: Probe binding HDAC11 time resolved fluorescence (TRF) assay. To be noted: Table 2, read-out: HDAC11 IC50 Range. Here is the method: The probe binding HDAC11 assay was performed using a time resolved fluorescence (TRF) assay format. Recombinant N-terminal GST tag full-length human HD AC 11 was expressed and purified from baculovirus in Sf9 insect cells (SignalChem, #H93-30G-1000). […] 4 μL of 2× probe and 2× anti-GST Terbium (Cisbio, #61GSTXLB) was added to assay plates followed by 4 μL of 2×HDAC11.
T1 sequence (Q96DB2 whole entry): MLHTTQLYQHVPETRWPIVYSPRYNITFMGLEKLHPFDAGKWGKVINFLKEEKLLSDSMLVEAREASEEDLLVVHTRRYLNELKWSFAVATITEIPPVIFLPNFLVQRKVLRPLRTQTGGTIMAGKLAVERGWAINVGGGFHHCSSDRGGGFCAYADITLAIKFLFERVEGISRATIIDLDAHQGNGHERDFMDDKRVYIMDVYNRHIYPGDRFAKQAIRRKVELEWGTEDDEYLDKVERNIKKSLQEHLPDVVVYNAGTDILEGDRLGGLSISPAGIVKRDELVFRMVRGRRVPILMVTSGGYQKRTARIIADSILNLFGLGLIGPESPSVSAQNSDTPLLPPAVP
Data from HD AC 11 Assays were reported as percent inhibition (inh) compared with control wells based on the following equation: % inh=1−((FLU−AveLow)/(AveHigh−AveLow)) where FLU=measured time resolved fluorescence. AveLow=average time resolved fluorescence of no enzyme control (n=32). AveHigh=average time resolved fluorescence of DMSO control (n=32). IC50 values were determined by curve fitting of the standard 4 parameter logistic fitting algorithm included in the Activity Base software package: IDBS XE Designer Model205. Data is fitted using the Levenburg Marquardt algorithm.

For data set [3], the target named is T1, full-length human HDAC11. Nature of the data set: HDAC11 deacetylase electrophoretic mobility shift assay (Nanosyn). Type of data set: biochemical. To be noted: for HDAC11 potency, in words: comparison with parent or lead compound; for IC50: mobility shift assay. As to the method: The measurement of HD AC 11 deacetylase activity was performed using an electrophoretic mobility shift assay by Nanosyn (Santa Clara, Calif.). Full length human recombinant HD AC 11 protein was expressed in baculoviral system and purified by affinity chromatography. The enzymatic reactions were assembled in 384 well plates in a total volume of 25 μL in a reaction buffer composing: 100 mM HEPES, pH 7.5, 25 mM KCl, 0.1% bovine serum albumin, 0.01% Triton X-100, 1% DMSO (from compounds), 2 μM of the fluorescently labeled peptide substrate and enzyme. The enzyme was added at a final concentration of 10 nM. The peptide substrate FAM-RHKK(tri-fluor-Ac)—NH2 was used. The compounds were tested at 12 concentrations spaced by 3× dilution intervals. Negative control samples (0%-inhibition in the absence of inhibitor) and positive control samples (100%-inhibition) were assembled in replicates of four in each assay plate. The reactions were incubated at 25° C. and quenched by the addition of 45 μL of termination buffer (100 mM HEPES, pH 7.5, 0.01% Triton X-100, 0.05% SDS).
The terminated assay plates were analyzed on LabChip® 3000 microfluidic electrophoresis instrument (Perkin Elmer/Caliper Life Sciences). The fluorescence intensity of the electrophoretically separated de-acetylated product and substrate peptide was measured. Activity in each sample was determined as the product to sum ratio (PSR): P/(S+P), where P is the peak height of the product peptide and S is the peak height of the substrate peptide. Percent inhibition (Pinh) is determined using the following equation: Pinh=(PSR0%−PSRinh)/(PSR0%−PSR100%)*100, where PSRinh, is the product sum ratio in the presence of inhibitor, PSR0% is the average product sum ration in the absence of inhibitor and PSR100% is the average product sum ratio in 100%-inhibition control samples. The IC50 values of inhibitors were determined by fitting the percent inhibition curves with 4 parameter dose-response model using XLfit 4 software.
For orientation: Mobility shift assays separate free from complexed probe on a gel.

For a further data set, the target named is HDAC11 (Homo sapiens (Human), UniProt Q96DB2). Nature of the data set: Lipophilic efficiency (pIC50 HDAC11 - clogD7.4). As to conditions: pIC50 HDAC11 - clogD7.4, Table 5.
Chain of HDAC11 (Q96DB2 whole entry): as above
A further data set addresses HDAC6 (Homo sapiens (Human), UniProt Q9UBN7). The data set can be described thus: HDAC6 electrophoretic mobility shift assay. Type of data set: biochemical. To be noted: for IC50: mobility shift assay.
Where [4] appears, read: Table 3, mean of at least two runs, read-out: HDAC 6 IC50.
Where [5] appears, read: Table 3, mean of at least two runs, read-out: HDAC 11 IC50.

Read-outs that look alike come from different tables or passages of the source.

Chain of HDAC6 (Q9UBN7 whole entry, species assumed): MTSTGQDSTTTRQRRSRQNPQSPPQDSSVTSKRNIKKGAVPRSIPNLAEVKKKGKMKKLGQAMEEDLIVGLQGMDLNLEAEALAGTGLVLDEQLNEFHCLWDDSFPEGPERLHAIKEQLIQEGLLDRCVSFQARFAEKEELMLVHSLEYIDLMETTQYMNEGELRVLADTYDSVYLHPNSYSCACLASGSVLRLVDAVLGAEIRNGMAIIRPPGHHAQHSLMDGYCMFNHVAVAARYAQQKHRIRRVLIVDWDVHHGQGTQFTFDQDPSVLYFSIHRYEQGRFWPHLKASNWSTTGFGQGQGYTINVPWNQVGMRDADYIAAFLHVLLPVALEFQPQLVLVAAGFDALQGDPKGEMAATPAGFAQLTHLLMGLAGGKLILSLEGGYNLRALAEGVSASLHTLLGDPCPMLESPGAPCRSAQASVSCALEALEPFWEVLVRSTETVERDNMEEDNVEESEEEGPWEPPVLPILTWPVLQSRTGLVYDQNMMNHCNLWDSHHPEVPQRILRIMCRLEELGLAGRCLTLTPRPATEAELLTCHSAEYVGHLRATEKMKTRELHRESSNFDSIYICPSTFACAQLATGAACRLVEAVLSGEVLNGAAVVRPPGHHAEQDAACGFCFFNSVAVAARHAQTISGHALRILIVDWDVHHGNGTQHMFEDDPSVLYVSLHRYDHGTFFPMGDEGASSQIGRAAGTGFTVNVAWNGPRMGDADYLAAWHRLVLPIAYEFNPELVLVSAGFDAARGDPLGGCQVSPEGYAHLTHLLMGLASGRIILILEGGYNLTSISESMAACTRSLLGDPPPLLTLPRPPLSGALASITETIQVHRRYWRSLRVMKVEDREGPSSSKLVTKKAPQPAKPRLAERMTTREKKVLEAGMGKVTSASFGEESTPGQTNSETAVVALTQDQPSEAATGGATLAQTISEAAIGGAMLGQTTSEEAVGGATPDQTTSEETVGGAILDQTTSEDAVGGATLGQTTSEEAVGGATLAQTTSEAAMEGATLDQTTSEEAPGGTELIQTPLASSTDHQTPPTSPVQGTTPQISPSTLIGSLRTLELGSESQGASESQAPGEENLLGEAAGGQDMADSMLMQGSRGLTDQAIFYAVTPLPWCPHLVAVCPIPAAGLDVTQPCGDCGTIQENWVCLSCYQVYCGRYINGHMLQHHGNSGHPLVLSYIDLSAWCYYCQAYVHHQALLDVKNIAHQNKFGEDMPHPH

With `O=C(NO)c1cccc2c1CN(c1nc3ccccc3s1)C2` [Compound 7-4, 2-(benzo[d]thiazol-2-yl)-N-hydroxyisoindoline-4-carboxamide], the microsomal CLint in data set [1] (Table 5) was greater than 100 µL/min/mg. The “microsomal stability, in words” value in data set [1] is “significant loss of microsomal stability”. Moreover, the IC50 on full-length human HDAC11 [2] is less than 500 nM; at full-length human HDAC11 [3] (Table 5, read-out: HDAC11 IC50), less than 500 nM. In addition, the “HDAC11 potency, in words” value at full-length human HDAC11 [3] is given as “improved potency”. Further, the LipE entry at HDAC11 is listed as “+ (indicates LipE≤5.5)”.

With `O=C(NO)c1cccc2c1CN(c1nc3ccc(C(F)(F)F)cc3[nH]1)C2` [Compound 12-1, N-hydroxy-2-(6-(trifluoromethyl)-1H-benzo[d]imidazol-2-yl)isoindoline-4-carboxamide], in data set [1] (Table 5), the microsomal CLint is greater than 100 µL/min/mg. For the same molecule, the “microsomal stability, in words” value in data set [1] is listed as “loss of microsomal stability”. In addition, the IC50 on full-length human HDAC11 [2] was less than 500 nM; at full-length human HDAC11 [3] (Table 5, read-out: HDAC11 IC50), less than 500 nM. The “HDAC11 potency, in words” value at full-length human HDAC11 [3] is “significant increase in both potency and LipE”. In addition, at HDAC11, the LipE result is on record as “++ (indicates 5.5<LipE≤6.5)”.

The molecule `Cc1nc(N2Cc3cccc(C(=O)NO)c3C2)[nH]c1C.Cl` [Compound 1-2, 2-(4,5-dimethyl-1H-imidazol-2-yl)-N-hydroxyisoindoline-4-carboxamide hydrochloride] registered a microsomal CLint in data set [1] (Table 5) of 51 to 100 µL/min/mg. The “microsomal stability, in words” value in data set [1] was “loss of potency and microsomal stability”. For the same molecule, the IC50 at full-length human HDAC11 [2] was greater than 1000 nM; on full-length human HDAC11 [3] (Table 5, read-out: HDAC11 IC50) it was greater than 1000 nM. Also, the “HDAC11 potency, in words” value on full-length human HDAC11 [3] is given as “loss of potency”. Further, on HDAC11, the LipE entry is “++ (indicates 5.5<LipE≤6.5)”.

`Cl.O=C(NO)c1cccc2c1CN(c1nc3c([nH]1)CCCC3)C2` [Compound 1-4, N-hydroxy-2-(4,5,6,7-tetrahydro-1H-benzo[d]imidazol-2-yl)isoindoline-4-carboxamide hydrochloride] yielded a microsomal CLint in data set [1] (Table 5) greater than 100 µL/min/mg. Moreover, the “microsomal stability, in words” value in data set [1] is “loss of potency and microsomal stability”. For the same molecule, the IC50 on full-length human HDAC11 [2] is greater than 1000 nM; at full-length human HDAC11 [3] (Table 5, read-out: HDAC11 IC50), greater than 1000 nM. Also, the “HDAC11 potency, in words” value on full-length human HDAC11 [3] is “loss of potency”. Moreover, the LipE result on HDAC11 is listed as “++ (indicates 5.5<LipE≤6.5)”.

In the case of `O=C(NO)c1cccc2c1CN(c1nc3ccccc3o1)C2` [Compound 15-1, 2-(benzo[d]oxazol-2-yl)-N-hydroxyisoindoline-4-carboxamide], the microsomal CLint in data set [1] (Table 5) is greater than 100 µL/min/mg. The “microsomal stability, in words” value in data set [1] is “significant loss of microsomal stability”. For the same molecule, the half-maximal inhibitory concentration (IC50) at full-length human HDAC11 [2] was less than 500 nM; on full-length human HDAC11 [3] (Table 5, read-out: HDAC11 IC50), less than 500 nM. For the same molecule, at full-length human HDAC11 [3], the “HDAC11 potency, in words” value is “improved potency”. In addition, the LipE result on HDAC11 is “+++ (indicates a LipE>6.5)”.

Turning to `O=C(NO)c1cccc2c1CN(c1nc3ccccc3[nH]1)C2` [Compound 1-6, 2-(1H-benzo[d]imidazol-2-yl)-N-hydroxyisoindoline-4-carboxamide], the IC50 at HDAC6 (Table 4, read-out: HDAC6 IC50) is greater than 1000 nM. Also, in data set [1] (Table 4, read-out: m-CL-int), the microsomal CLint was less than 50 µL/min/mg. Moreover, in data set [1] (Table 5), the m-CLint entry is “+++ (indicates a m-CLint below 50 μL/min/mg)”. Moreover, the “microsomal stability, in words” value in data set [1] is “significant microsomal stability”.

Turning to `O=C(NO)c1cccc2c1CN(c1nc3ccccc3o1)C2=O` [Compound 36-1, 2-(benzo[d]oxazol-2-yl)-N-hydroxy-1-oxoisoindoline-4-carboxamide], the concentration for half-maximal inhibition (IC50) at full-length human HDAC11 [2] is greater than 1000 nM.

Regarding `O=C(NO)c1cccc2c1CN(c1ccc(C(F)(F)F)cn1)C2` [Compound 45-1, N-hydroxy-2-(5-(trifluoromethyl)pyridin-2-yl)isoindoline-4-carboxamide], in data set [1] (Table 5), the microsomal CLint lay within 51 to 100 µL/min/mg. For the same molecule, the “microsomal stability, in words” value in data set [1] is recorded as “significant loss of microsomal stability”. Besides, the IC50 at full-length human HDAC11 [2] was less than 500 nM; at full-length human HDAC11 [3] (Table 5, read-out: HDAC11 IC50) it was less than 500 nM. Also, the “HDAC11 potency, in words” value on full-length human HDAC11 [3] is given as “improved potency”. For the same molecule, the LipE result on HDAC11 is recorded as “++ (indicates 5.5<LipE≤6.5)”.

Turning to `O=C(NO)c1ccc2c(c1)CCN(c1nc3ccccc3[nH]1)C2` [Compound 50-5], the 50% inhibitory concentration (IC50) was less than 500 nM at HDAC6 (setting [4]) and greater than 2000 nM at full-length human HDAC11 [3] (setting [5]). Besides, the “HDAC11 potency, in words” value on full-length human HDAC11 [3] is listed as “loss of HD AC 11 potency”.

For the molecule `O=C(NO)c1cccc2c1CN(C(=O)c1ccccc1)C2` [Compound 41-1, 2-benzoyl-N-hydroxyisoindoline-4-carboxamide], the IC50 at full-length human HDAC11 [2] is greater than 1000 nM.

As for `O=C(NO)c1cccc2c1CN(c1nc3ccncc3[nH]1)C2` [Compound 3-1, N-hydroxy-2-(3H-imidazo[4,5-c]pyridin-2-yl)isoindoline-4-carboxamide], on full-length human HDAC11 [2], the IC50 is greater than 1000 nM.

As for `CC1(C)c2cccc(C(=O)NO)c2CN1C(=O)c1cccc(C(F)(F)F)c1` [Compound 28-2, N-hydroxy-1,1-dimethyl-2-(3-(trifluoromethyl)benzoyl)isoindoline-4-carboxamide], at full-length human HDAC11 [2], the half-inhibitory concentration (IC50) is greater than 1000 nM.

Regarding `CC1(C)c2cccc(C(=O)NO)c2CN1c1cc(C#N)c(C(F)(F)F)cn1` [Compound 27-2, 2-(4-cyano-5-(trifluoromethyl)pyridin-2-yl)-N-hydroxy-1,1-dimethylisoindoline-4-carboxamide], the IC50 on full-length human HDAC11 [2] is less than 500 nM.

Regarding `O=C(NO)c1ccc2c(c1)CN(c1nc3ccccc3[nH]1)CC2` [Compound 50-4], the IC50 is less than 500 nM on HDAC6 (setting [4]) and greater than 2000 nM on full-length human HDAC11 [3] (setting [5]).

With `CC1(C)c2cccc(C(=O)NO)c2CN1c1nc2ncc(C(F)(F)F)cc2o1` [Compound 26-2, N-hydroxy-1,1-dimethyl-2-(6-(trifluoromethyl)oxazolo[4,5-b]pyridin-2-yl)isoindoline-4-carboxamide], on full-length human HDAC11 [2], the concentration for half-maximal inhibition (IC50) is less than 500 nM.

Regarding `O=C(NO)c1cccc2c1CN(c1nc3ccccc3[nH]1)CC2` [Compound 50-6], the IC50 on HDAC6 (setting [4]) is less than 500 nM; on full-length human HDAC11 [3] (setting [5]), greater than 2000 nM. At HDAC6 (relative to initial lead 50-4), the “loss in potency vs. HDAC6” value amounted to 20 fold. The “loss in activity vs. HDAC11” value on full-length human HDAC11 [3] (relative to initial lead 50-4) was 2 fold.

Consider `CCCc1cnc(N2Cc3cccc(C(=O)NO)c3C2)[nH]1` [Compound 1-3, N-hydroxy-2-(5-propyl-1H-imidazol-2-yl)isoindoline-4-carboxamide], for which, at full-length human HDAC11 [2], the IC50 was greater than 1000 nM.

Turning to `CC1(C)c2cccc(C(=O)NO)c2CN1c1nc2c(o1)CCC(C(F)(F)F)C2` (centres unmarked) [Compound 19-1, N-hydroxy-1,1-dimethyl-2-[5-(trifluoromethyl)-4,5,6,7-tetrahydro-1,3-benzoxazol-2-yl]-2,3-dihydro-1H-isoindole-4-carboxamide], the IC50 at full-length human HDAC11 [2] was less than 500 nM.

In turn, `Cl.O=C(NO)c1cccc2c1CN(c1ccc3ccccc3n1)C2` [Compound 7-2, N-hydroxy-2-(quinolin-2-yl)isoindoline-4-carboxamide hydrochloride] had a microsomal CLint in data set [1] (Table 5) of 51 to 100 µL/min/mg. In addition, in data set [1], the “microsomal stability, in words” value is recorded as “significant loss of microsomal stability”. The IC50 is less than 500 nM at full-length human HDAC11 [2] and less than 500 nM at full-length human HDAC11 [3] (Table 5, read-out: HDAC11 IC50). Moreover, the “HDAC11 potency, in words” value at full-length human HDAC11 [3] is “improved potency”. Besides, on HDAC11, the LipE result is reported as “+ (indicates LipE≤5.5)”.

Consider `CC1(C)c2cccc(C(=O)NO)c2CN1C(=O)Nc1ccc(C(F)(F)F)cc1` [Compound 29-1, N4-hydroxy-1,1-dimethyl-N2-(4-(trifluoromethyl)phenyl)isoindoline-2,4-dicarboxamide], for which the half-maximal inhibitory concentration (IC50) at full-length human HDAC11 [2] is less than 500 nM.

With `CC1(C)c2cccc(C(=O)NO)c2CN1C(=O)Nc1ccc(C(F)(F)F)nc1` [Compound 30-1, N4-hydroxy-1,1-dimethyl-N2-(6-(trifluoromethyl)pyridin-3-yl)isoindoline-2,4-dicarboxamide], the IC50 at full-length human HDAC11 [2] lay within 500 to 1000 nM.
